Experimental data reported in paper PMC5461367, “Neurologically Potent Molecules from Crataegus oxyacantha; Isolation, Anticholinesterase Inhibition, and Molecular Docking” (Frontiers in Pharmacology, 2017).
Several values for one entry are separate records, joined by “and”; a condition that tells them apart may be missing. Equal values may be shown once. Read-outs that look alike come from different tables or passages of the source.

What was measured:
[1] = test system: human brain based AChE; conditions: ref Harvey, 1995; cited from earlier work
[2] = molecular target: BChE (Homo sapiens, UniProt P06276); test: biochemical; conditions: for inhibition at 62.5 µg/mL / inhibition at 250 µg/mL: read-out: % BChE inhibition; for IC50: read-out: BChE IC50 (μM ± SEM)
Method: (§1) This yellow compound is UV detectable and is quantified with the passage of time with and without the impact of inhibitor agent. Briefly, from each enzyme solution, 5 μl were added to wells of micro plate and 5 μl DTNB was added to it. The resultant mixture was incubated for 15 min at 30°C in water bath followed by addition of 5 μl substrate solution. […] Control contains all solutions except inhibitor. Change in absorbance was recorded along with reaction time. At the end, Enzymes and enzymes inhibitory activities by control and our test samples were calculated from the rate of absorption with change in time as (V = Δ Abs /Δ t) and Enzyme inhibition as; Percent Enzyme activity = 100 × V/VMax.
(§2) Where, VMax is enzyme activity in the absence of inhibitor agent.

[3] = molecular target: AChE (Homo sapiens, UniProt P22303); test: biochemical; conditions: for inhibition at 62.5 µg/mL: 62.5 μg/ml; for inhibition at 250 µg/mL: 250 μg/ml; for IC50: read-out: AChE IC50 (μM ± SEM)
Method: as §1, §2

[4] = ratio of IC50 values, footnote b not given
[5] = ratio of IC50 values, footnote a not given

Sequence of AChE (P22303 32-614): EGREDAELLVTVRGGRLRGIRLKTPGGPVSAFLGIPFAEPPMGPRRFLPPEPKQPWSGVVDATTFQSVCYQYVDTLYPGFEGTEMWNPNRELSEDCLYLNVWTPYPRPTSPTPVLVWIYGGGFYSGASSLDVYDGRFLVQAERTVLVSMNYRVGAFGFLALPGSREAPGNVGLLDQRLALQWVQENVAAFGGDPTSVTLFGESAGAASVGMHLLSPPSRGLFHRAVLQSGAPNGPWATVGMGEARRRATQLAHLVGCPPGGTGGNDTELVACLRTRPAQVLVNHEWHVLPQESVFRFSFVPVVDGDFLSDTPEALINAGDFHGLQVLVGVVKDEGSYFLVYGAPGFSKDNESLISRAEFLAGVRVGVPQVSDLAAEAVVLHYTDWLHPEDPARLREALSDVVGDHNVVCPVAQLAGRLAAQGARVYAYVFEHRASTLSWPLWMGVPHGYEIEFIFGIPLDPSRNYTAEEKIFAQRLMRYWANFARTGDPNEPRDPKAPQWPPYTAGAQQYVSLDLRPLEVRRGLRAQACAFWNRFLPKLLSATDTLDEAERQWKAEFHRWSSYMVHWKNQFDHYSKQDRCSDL
Sequence of BChE (P06276 29-602): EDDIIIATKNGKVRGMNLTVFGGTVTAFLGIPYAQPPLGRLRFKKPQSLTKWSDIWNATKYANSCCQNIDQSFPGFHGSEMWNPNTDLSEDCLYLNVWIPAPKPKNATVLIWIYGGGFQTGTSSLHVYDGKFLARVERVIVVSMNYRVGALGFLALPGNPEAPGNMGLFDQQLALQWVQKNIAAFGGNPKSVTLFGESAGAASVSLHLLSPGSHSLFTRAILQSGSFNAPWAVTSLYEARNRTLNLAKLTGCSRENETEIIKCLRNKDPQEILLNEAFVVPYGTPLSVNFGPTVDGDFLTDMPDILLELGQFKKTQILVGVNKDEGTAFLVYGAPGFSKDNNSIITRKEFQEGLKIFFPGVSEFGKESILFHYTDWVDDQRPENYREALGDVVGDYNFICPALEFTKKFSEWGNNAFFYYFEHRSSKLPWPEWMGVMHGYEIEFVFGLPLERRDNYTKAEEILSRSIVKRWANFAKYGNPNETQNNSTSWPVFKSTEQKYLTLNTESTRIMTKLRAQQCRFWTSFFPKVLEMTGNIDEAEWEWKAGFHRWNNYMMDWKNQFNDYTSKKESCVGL

SMILES | lower potency against human brain based AChE as compared to RBCs variant [1] | inhibition at 62.5 µg/mL [2] | inhibition at 250 µg/mL [2] | inhibition at 62.5 µg/mL ([2]; 62.5 μg/ml) | inhibition at 250 µg/mL ([2]; 250 μg/ml) | BChE selectivity [2, 4] | IC50 [2] | inhibition at 62.5 µg/mL [3] | inhibition at 250 µg/mL [3] | AChE selectivity [3, 5] | IC50 [3] | BChE selectivity [2] | AChE selectivity [3]
COc1ccc2c3c1O[C@H]1C[C@@H](O)C=C[C@@]31CCN(C)C2 [Galantamine, reference compound] | 10 times | 87.8 ± 1.01% | 95.3 ± 1.09% |  |  |  |  |  |  |  |  |  | 
C=C(C)[C@@H]1CC[C@]2(CO)CC[C@]3(C)[C@H](CC[C@@H]4[C@@]5(C)CC[C@H](O)C(C)(C)[C@@H]5CC[C@]43C)[C@@H]12 [Compound 6, 3β, 28-Dihydroxylup-20(29)-ene] |  |  |  | 82.5 ± 0.9% | 95.8 ± 2.25% | 0.93 | 25.6 ± 1.25 µM | 84 ± 1.15% | 96.13 ± 0.2% | 1.06 | 24 ± 1.1 µM |  | 
C=C(C)[C@@H]1CC[C@]2(C)CC[C@]3(C)[C@H](CC[C@@H]4[C@@]5(C)CC[C@H](O)C(C)(C)[C@@H]5CC[C@]43C)[C@@H]12 [Compound 4, Lupeol] |  |  |  | 85.8 ± 1.5% | 91.42 ± 0.43% | 27.71 | 1.31 ± 0.12 µM | 77.87 ± 0.26% | 93.73 ± 0.78% | 0.04 | 36.3 ± 1.89 µM |  | 
COc1ccc(C(CO)OC)cc1OC (stereo not shown) [Compound 1, 2-(3,4-Dimethoxyphenyl)-2-Methoxyethanol] |  |  |  | 84.3 ± 2.19% | 90.7 ± 1.34% | 9.62 | 2.41 ± 0.09 µM | 89.7 ± 1.47% | 97.3 ± 1.06% | 0.10 | 23.2 ± 1.02 µM |  | 
CC[C@H](CC[C@@H](C)[C@H]1CC[C@H]2[C@@H]3CC=C4C[C@@H](O)CC[C@]4(C)[C@H]3CC[C@]12C)C(C)C [Compound 5, β-Sitosterol] |  |  |  | 87.08 ± 0.47% | 92.6 ± 1.12% |  | 0.55 µM and 0.56 µM | 80% | 91.33 ± 0.49% |  | 14.6 ± 0.85 µM | 26.62 | 0.04
C=C(C)[C@@H]1CC[C@]2(C(=O)O)CC[C@]3(C)[C@H](CC[C@@H]4[C@@]5(C)CC[C@H](O)C(C)(C)[C@@H]5CC[C@]43C)[C@@H]12 [Compound 7, 3β-Dihydroxylup-20(29)-ene-28-oic Acid] |  |  |  | 87.2 ± 1.28% | 94.1 ± 0.6% | 12.78 | 3.48 ± 0.15 µM | 77.7 ± 1.25% | 95.7 ± 1.6% | 0.07 | 44.5 ± 1.73 µM |  | 
O=c1cc(-c2ccccc2)oc2cc(O)cc(O)c12 [Compound 9, 5,7-Dihydroxyflavone] |  |  |  | 80.9 ± 1.9% | 85% | 51.27 | 0.63 ± 0.06 µM | 81.2 ± 0.23% | 93.67 ± 0.88% | 0.02 | 32.3 ± 1.8 µM |  | 
CCC(CCC(C)C1CCC2C3CC=C4CC(OC5OC(CO)C(O)C(O)C5O)CCC4(C)C3CCC12C)C(C)C [Compound 3, β-Sitosterol-3-O-β-D-Glucopyranoside] |  |  |  | 83.03 ± 0.35% | 94.84 ± 0.3% | 0.47 | 11.8 ± 0.93 µM | 87.9 ± 0.52% | 95.7 ± 1.6% | 2.26 | 5.22 ± 0.59 µM |  | 
COc1cc(C(=O)CCO)ccc1O [Compound 2, 3-Hydroxy-1-(4-Hydroxy-3-Methoxyphenyl) Propan-1-One] |  |  |  | 87.6 ± 1.06% | 95.76 ± 0.71% | 1.69 | 15.4 ± 1.01 µM | 83.74 ± 0.68% | 93.05 ± 0.75% | 0.59 | 25.9 ± 1.35 µM |  | 
